How the values were obtained:
[1] = test system: MCF-7 cells; experiment: Viability of MCF-7 breast cancer cells; assay type: cell-based, human
Protocol: To quantify cell death, around the time when significant and characteristic morphological changes took place, cells were pulse-labeled for 10 minutes with [^3H]thymidine to measure DNA activity as described elsewhere [Tomono, M. and Kiss, Z. (1995), “Ethanol enhances the stimulatory effects of insulin and insulin-like growth factor-I on DNA synthesis in NIH 3T3 fibroblasts,” Biochem. Biophys. Res. Commun. 208, 63-67]. Also, cells were collected as suspensions using trypsin, an established method in cell biology, followed by re-plating of cells in fresh tissue culture medium. If no viable cells were obtained after one week in culture, it meant that the cells at the time of re-plating were dead. Survival values obtained with untreated cells were considered 100%. For the determination of relative number of viable cells after treatments, in most cases the MTT assay was used. This calorimetric assay is based on the ability of living cells, but not dead cells, to reduce 3-(4,5-dimethyl thiazol-2-yl)-2,5-diphenyltetrazolium bromide [Carmichael, J, De Graff, W. G., Gazdar, A. F., Minna, J. D. and Mitchell, J. B. (1987), “Evaluation of tetrazolium-based semi-automated calorimetric assay: Assessment of chemosensitivity testing,” Cancer Res. 47, 936-942]. For this assay, cells were plated in 96-well plates, and the MTT assay was performed both in untreated and treated cell cultures. The MTT assay also was performed at the start of treatments to allow assessment of proliferation rates in the control and treated cell cultures.
About 50% confluent cultures of MCF-7 cells, cultured in 12-well plates in Dulbecco's modified Eagle's medium (DMEM) supplemented with 10% FBS, were either untreated (FIG. 3A), or were treated with 100 μM CCDTHT (CCompound3) for 72 hours (FIG. 3B). […] This experiment was repeated three times with similar results. In some experiments, cells from the CCDTHT-treated cultures were seeded into 96-well plates, and the MTT assay was performed 96 hours later to test for viable cells.
The NIH 3T3 (normal) mouse fibroblast, A431 human epidermoid adenocarcinoma, and MCF-7 human breast cancer cells were cultured in DMEM medium containing 10% FBS. The MEL-28 human melanoma cells were cultured in MEM medium containing 10% FBS. The HT-29 human colon adenocarcinoma cells were cultured in McCoy's 5a medium containing 10% FBS. The A549 human lung carcinoma cells were maintained in Ham's F12K medium containing 10% FBS. Cells were seeded into 96-well plates and treated at ˜70-90% confluency. Two hours before treatments the medium was changed for fresh 10% serum medium, and then the cells were incubated for 72 hours in the presence of 0-200 μM of CCompound1 (●) or CCompound3 (CCDTHT) (▴), as indicated. The MTT assay was used to determine cell viability after treatments. The values, shown in FIGS. 5A-5F and expressed as percent decrease in viability compared to the untreated control cells, are the mean±std. dev. of 8 incubations in one experiment. Similar results were obtained in another experiment.
NIH 3T3, AN3CA, HT-29, MEL-28, and MCF-7 cells were cultured as described earlier. Cells were seeded into 96-well plates; when cells were ˜80-90% confluent, the medium was changed for fresh 10% serum-containing medium, followed by incubations for 72 hours in the absence (□) or presence of 100 μM CCDTHT ? , 2 mM ethanolamine (Etn) ? , or 100 μM CCDTHT+2 mM Etn (▪). The MTT assay was used to determine cell viability. […]

[2] = test system: AN3CA cells; experiment: Viability of AN3CA endometrial adenocarcinoma cells (MTT assay); assay type: cell-based, human; conditions: 100 μM, 72 hours
Protocol: To quantify cell death, around the time when significant and characteristic morphological changes took place, cells were pulse-labeled for 10 minutes with [^3H]thymidine to measure DNA activity as described elsewhere [Tomono, M. and Kiss, Z. (1995), “Ethanol enhances the stimulatory effects of insulin and insulin-like growth factor-I on DNA synthesis in NIH 3T3 fibroblasts,” Biochem. Biophys. Res. Commun. 208, 63-67]. Also, cells were collected as suspensions using trypsin, an established method in cell biology, followed by re-plating of cells in fresh tissue culture medium. If no viable cells were obtained after one week in culture, it meant that the cells at the time of re-plating were dead. Survival values obtained with untreated cells were considered 100%. For the determination of relative number of viable cells after treatments, in most cases the MTT assay was used. This calorimetric assay is based on the ability of living cells, but not dead cells, to reduce 3-(4,5-dimethyl thiazol-2-yl)-2,5-diphenyltetrazolium bromide [Carmichael, J, De Graff, W. G., Gazdar, A. F., Minna, J. D. and Mitchell, J. B. (1987), “Evaluation of tetrazolium-based semi-automated calorimetric assay: Assessment of chemosensitivity testing,” Cancer Res. 47, 936-942]. For this assay, cells were plated in 96-well plates, and the MTT assay was performed both in untreated and treated cell cultures. […]

CC[N+](C)(CC)CCOCc1ccc2sc3ccccc3c(=O)c2c1.[I-] [CCDTHT, N,N-diethyl-N-methyl-2-[(9-oxo-9H-thioxanthen-2-yl)methoxy]-ethanaminium iodide]
decrease in viability, MCF-7 ([1]; 0-200 μM, 72 hours, MTT): similarly large effects | viable cells by MTT after re-seeding treated MCF-7 cells ([1]; 100 μM 72 hours, re-seeded, MTT 96 hours later): did not detect viable cells | morphology / cell death, MCF-7 ([1]; 100 μM, 72 hours, 12-well plates): practically all cells rounded up | decrease in the number of viable cells versus 0.5 mM HC-3, AN3CA [2]: much greater decreases in the number of viable cells compared to 0.5 mM HC-3

Reference: patent US7943606B2, “Compositions and methods to control abnormal cell growth” (CanCure Laboratories, LLC, priority 2005, dated 2011)
